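Test compounds were applied to cells in 96-well plates for 48 hours at 5 doses. GI50 is the concentration that inhibits growth by half. TGI denotes the concentration required for complete inhibition of growth.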 Where a SMILES comes first, the peptide text is derived from it. [ ]: non-standard residue; d: D form. The star is where a group is joined. Palmitoyl = CCCCCCCCCCCCCCCC(=O)*; Cbz = O=C(OCc1ccccc1)*; Aib = CC(C)(N)C(=O)O; OBn = c1ccc(CO*)cc1
Experiments:
Test in all cases: NCI tumour cell line growth inhibition, 48 h
A498 renal = tested on: A498 renal
NCI-H226 lung = tested on: NCI-H226 lung
OVCAR-8 ovarian = tested on: OVCAR-8 ovarian
RPMI-8226 leukemia = tested on: RPMI-8226 leukemia
SF-268 CNS = tested on: SF-268 CNS
SK-MEL-5 melanoma = tested on: SK-MEL-5 melanoma
BT-549 breast = tested on: BT-549 breast
DU-145 prostate = tested on: DU-145 prostate
HS 578T breast = tested on: HS 578T breast
MDA-N = tested on: MDA-N

Row | SMILES | TGI (A498 renal) [µM] | TGI (NCI-H226 lung) [µM] | TGI (OVCAR-8 ovarian) [µM] | GI50 (RPMI-8226 leukemia) [µM] | TGI (RPMI-8226 leukemia) [µM] | TGI (SF-268 CNS) [µM] | TGI (SK-MEL-5 melanoma) [µM] | TGI (BT-549 breast) [µM] | TGI (DU-145 prostate) [µM] | TGI (HS 578T breast) [µM] | TGI (MDA-N) [µM] | GI50 (A498 renal) [µM] | GI50 (BT-549 breast) [µM] | GI50 (DU-145 prostate) [µM] | GI50 (HS 578T breast) [µM] | GI50 (NCI-H226 lung) [µM] | GI50 (OVCAR-8 ovarian) [µM] | GI50 (SF-268 CNS) [µM] | GI50 (SK-MEL-5 melanoma) [µM]
1 | C=CC1(C)CC(=O)C2(O)C(C)(O1)C(OC(C)=O)C(O)C1C(C)(C)CCC(O)C12C (configuration not stated) | > 150 | > 72.8 | > 150 | > 57.2 | 120 | > 150 | > 102 | – | – | – | – | – | – | – | – | – | – | – | –
2 | Cc1cc(N(C)C)c2ccccc2[n+]1CCCCCCCCCC[n+]1c(C)cc(N(C)C)c2ccccc21 | 14 | > 100 | 16 | – | 4.33 | 33.3 | 1.07 | 15.4 | 16.2 | > 95.3 | 2.73 | – | – | – | – | – | – | – | –
3 | CN1Cc2c(nc(-c3ccccc3)c[n+]2[O-])N(C)C1 | > 100 | > 100 | > 100 | – | > 100 | > 100 | > 100 | – | – | – | – | – | – | – | – | – | – | – | –
4 | C=C(CN(C)C)C(=O)c1ccc(C(=O)C(=C)CN(C)C)cc1 | > 100 | > 100 | > 100 | – | > 100 | > 100 | > 100 | – | > 100 | – | – | – | – | – | – | – | – | – | –
5 | CNc1[nH]c(=S)nc2sc3c(c12)CCCC3 | > 75 | > 75 | > 75 | – | > 75 | > 75 | > 75 | > 75 | > 75 | > 75 | – | – | – | – | – | – | – | – | –
6 | N#Cc1sc2c(c1OC(=O)c1ccc(C(F)(F)F)cc1)c(=O)n(-c1ccccc1)c(=S)n2-c1ccccc1 | 90.2 | 99.8 | > 100 | – | 45.9 | > 100 | 62.2 | – | > 100 | 91.7 | > 100 | – | – | – | – | – | – | – | –
7 | Cc1cc(C)nc(NC(=S)Nc2ccc([N+](=O)[O-])cc2)c1 | > 100 | > 100 | > 100 | – | > 100 | > 100 | > 100 | > 100 | > 100 | > 100 | – | – | – | – | – | – | – | – | –
8 | CCOC(=O)/C(C(C)=O)=C(\OC(C)=O)c1ccncc1C(=O)O | > 100 | > 100 | > 100 | – | > 100 | > 100 | – | > 100 | > 100 | > 100 | > 100 | – | – | – | – | – | – | – | –
9 | Nc1ncc2c(n1)-c1ccccc1OC2N1CCCC1 (configuration not stated) | – | > 100 | > 100 | – | > 100 | > 100 | > 100 | – | > 100 | > 100 | > 100 | – | – | – | – | – | – | – | –
10 | O[C@H]1[C@H](O)[C@@H](O)CN2CC[C@H](O)[C@H]12 | > 100 | > 100 | > 100 | – | > 100 | > 100 | > 100 | – | – | – | – | – | – | – | – | – | – | – | –
11 | Clc1sc(Cl)c2c1[C@@H](Cl)C[C@@H]2Br | – | – | > 100 | – | – | > 100 | > 100 | > 100 | > 100 | > 100 | > 100 | – | – | – | – | – | – | – | –
12 | O=C(OCC(Cl)(Cl)Cl)N1CC[C@H](C2CCCCC2)C1 | – | – | – | – | – | 36.3 | 30 | 53.9 | 31.8 | – | > 100 | – | – | – | – | – | – | – | –
13 | CC(NC(=O)C(C)(C)NC(=O)C(CC(=O)OCc1ccccc1)NC(=O)OCc1ccccc1)C(N)=O (configuration not stated) (Cbz-Asp(OBn)-[Aib]-Ala-NH2; configuration not given here) | – | > 100 | > 100 | – | > 100 | > 100 | > 100 | > 100 | > 100 | > 100 | > 100 | – | – | – | – | – | – | – | –
14 | c1ccc(C(C(=Nc2ccc(Cc3ccc(N=C(C(c4ccccc4)c4ccccc4)N4CC4)cc3)cc2)N2CC2)c2ccccc2)cc1 | 29.1 | 38.3 | 22.5 | – | 39.5 | 21.8 | 20.1 | 24.7 | 28 | 35.7 | – | – | – | – | – | – | – | – | –
15 | C=C(C)CNCCN | > 100 | > 100 | > 100 | – | – | > 100 | > 100 | > 100 | > 100 | > 100 | > 100 | – | – | – | – | – | – | – | –
16 | CCCCCCCCCCCCCCCC(=O)N1CCCC1C(=O)NCC(=O)NC(Cc1ccccc1)C(=O)N1CCCC1C(=O)NC(CO)C(=O)NC(Cc1ccc(O)cc1)C(=O)NC(CCCCN)C(=O)NC(CC(C)C)C(=O)NC(CCCN=C(N)N)C(=O)N1CCCC1C(=O)NCC(N)=O (configuration not stated) (Palmitoyl-PGFPSYKLRPG-NH2; configuration not given here) | 93.2 | 44.4 | 55.4 | 11.6 | 29.3 | 30.6 | > 100 | 43.2 | 39.9 | 74.5 | – | 32.8 | 20.8 | 18.3 | 22.2 | 23.5 | 22.1 | 12.4 | 28.7
17 | CC12c3c4ccc(C=O)c3Oc3ccc(C=O)c(c31)Oc1ccc(C=O)c(c12)O4 | > 25 | > 25 | > 25 | – | > 25 | > 25 | – | > 25 | > 25 | > 25 | > 25 | – | – | – | – | – | – | – | –
18 | Cc1ccnc(NC(=S)Nc2ccc([N+](=O)[O-])cc2)c1 | – | > 100 | > 100 | – | > 100 | > 100 | > 100 | > 100 | > 100 | 94.8 | – | – | – | – | – | – | – | – | –
19 | O=C(CN1C(=O)CC(c2ccccc2)(c2ccccc2)C1=O)N1CCN(CCO)CC1 | > 100 | – | > 100 | – | > 100 | > 100 | > 100 | > 100 | > 100 | > 100 | – | – | – | – | – | – | – | – | –
20 | O=C1c2cccc3cccc(c23)C(=O)N1CCCNCCCCNCCCNCCCN1C(=O)c2cccc3cccc(c23)C1=O | 2.47 | 2.15 | 3.99 | – | – | 0.665 | 8.35 | 3.3 | 1.53 | 2.11 | 2.11 | – | – | – | – | – | – | – | –
21 | COc1cc(C2c3cc4c(cc3[C@@H](Nc3ccccc3)C3COC(=O)[C@H]23)OCO4)cc(OC)c1O (some centres not stated) | 1.65 | 2.12 | > 19.7 | – | 2.23 | 13.2 | 2.66 | – | – | – | – | – | – | – | – | – | – | – | –
22 | CCc1n[nH]c(=O)n1-c1ccc2ccccc2c1 | > 100 | > 100 | > 100 | – | > 100 | > 100 | > 100 | – | > 100 | > 100 | > 100 | – | – | – | – | – | – | – | –
23 | O=C1NC(O)CCN1C1OC(CO)C(O)C1O (configuration not stated) | > 250 | > 250 | > 250 | – | > 250 | > 250 | > 92 | – | – | – | – | – | – | – | – | – | – | – | –

Reference: PubChem BioAssay (NCI)
